Laboratory results reported in patent publication US6352715B1, “Transdermal rate-controlled delivery of Huperzine A for treatment of alzheimer's disease” (priority 1998, dated 2002).

Legend:
rat cortex = conditions: cited from earlier work
[1] = Determination of pKa of Hup A by pH titration; format: physicochemical; conditions: 5×10^−4 M in water titrated with HCl
Procedure: A solution of the Hup A was prepared in water to obtain a concentration of 5×10^−4 M solution. Hydrochloric acid solution 0.005M was prepared by dilution of concentrated acid. Similarly, a NaOH solution was prepared by diluting commercially available 1N solution.
For all titration, the procedure used was similar and is described below. The solution to be titrated was taken in a breaker and continually mixed using a magnetic stir bar. A pH electrode was used to measure pH of the solution during the experiments. The pH meter was connected to a computer, which was programmed to automatically obtain pH readings every 10 seconds. […]
First, the HCL solution was standardized by titrating it with standard NaOH solution. This was carried out three times an d end point was determined from the inflection point using the titration profile. […]
The pH titration curve consists of […]: initial gradual decrease in pH as the base is slowly neutralized by the acid; middle region showing slow decrease in pH as excess acid is added to the solution. The pKa of the base is calculated from the initial region. The pH corresponding to midpoint of the initial part of the curve is the approximate pKa of the Hup A. Further, the exact pKa of Hup A was calculated by method described by Albert and Sergeant (1971), which is incorporated herein by reference. […]

[2] = tested on: rat embryo hippocampus and cerebellum cultured cells; conditions: cited from earlier work
[3] = single oral dose of 0.99 mg, six volunteers; cited from earlier work
[4] = pH/solubility profile in buffers; format: physicochemical; conditions: 37° C., 24 hours
Procedure: In order to conserve the drug quantity being used, single point solubility determinations were carried out. Six different buffers were prepared in to determine the solubility of Hup A. The pH range chosen to study solubility is in 2 units above and 2 units below the pKa of the drug, i.e., 5 to 9. In addition, pH 7.4 was also selected to determine solubility at the physiological pH. To determine solubility, weighed amounts of Hup A were added to six different glass vials. In each vial, 1 ml of the respective buffer was added. The vials were tightly closed and kept in a shaking water bath maintained at 37° C. for 24 hours. At the end of such period, the supernatant solution was filtered through 0.22 um nylon filters into pre-warmed tubes. An aliquot of the filtrate was further diluted and analyzed by HPLC.
It can be seen that at pH 2 units above the pKa, i.e., at pH 9, the solubility of Hup A is the lowest. At low pH, i.e., at pH 5, the solubility of Hup A is seen to be high. This is expected as at pH 5, the drug predominantly exists as an ionized moiety with a single positive charge. These charged ions are hydrophilic and can be easily solubilized by water. At pH 9, the drug predominantly exists as an neutral moiety which is lipophilic, thus the solubility is low. The log of solubility as a function of solution pH is explained by the Henderson-Hasselback equation: […]

[5] = Partitioning of Hup A into n-octanol from buffers of different pH; format: physicochemical; conditions: 48 hrs
Procedure: The buffers used to prepare solutions of Hup A for the partitioning study were the same as those used in the solubility studies, i.e., isotonic phosphate buffers with pH 5, 6, 7, 7.4, 8 and 9. Initially, 100 ml of n-octanol was mixed with 100 ml of phosphate buffers and placed in shaking water bath at 37° C. for 24 hours to saturate the n-octanol with buffer prior to study. Then the n-octanol was separated from the buffer using a separating funnel.
Solutions of Hup A (about 150 ug/ml concentration) were prepared separately in each of the six buffers. Then 1 ml each of each buffers was pipetted to three test tube. To these test tubes, 1 ml of the n-octanol was added. Controls were set up consisting only of buffer solutions without n-octanol to account for changes in concentration due to evaporation of buffer or degradation of drug if present. The tubes were sealed and placed in a shaking water bath at 37° C. for 48 hrs. Samples of 100 ul each were taken from both the n-octanol layer and the buffer layer and analyzed by HPLC. Partition coefficients were determined from the ratio of concentration of Hup A in n-octanol to that in buffer.
It appears that at high pH, when Hup A exists predominantly as a neutral moiety, the partition coefficient is high. As the pH is reduced the fraction of the unionized moiety decreases and so does the partition coefficient. At pH 5, when Hup A exists predominantly as a ionized moiety the partition coefficient is below 1, indicating high affinity of the drug for the buffer phase.

[6] = In vitro permeation of Hup A through human cadaver skin from donor solutions (Valia-Chien permeation cell); format: in vitro ADME; conditions: for Permeation arate: receptor pH 7.4; for Permeability × 10^3: values × 10^3
Procedure: Human cadaver skin is employed as model for studying in vitro transdermal permeation of Hup A. The skin specimens of human cadavers, obtained from Ohio Valley Skin & Tissue Center, are mounted between the two half cells of Valia-Chien Permeation Cell. Donor solutions were prepared in isotonic phosphate buffers of pH 5, 6, 7, 7.4, 8 and 9. Concentration of each solution was about 750 ug/ml. Permeation studies were carried out in triplicate at each pH evaluated. The receptor solution used in each case was isotonic phosphate buffer pH 7.4 to simulate physiological conditions.
As stated above human cadaver skin was used in the permeation studies. The skin, obtained frozen, was first thawed and rinsed with in normal saline. The skin was then blotted to remove excess moisture and cut into 2 cm×2 cm pieces. Each skin piece was sandwiched between two microscope glass slides and the thickness was measured using a micrometer. These skin pieces were then mounted between the two half-cell of Valia-Chien permeation cells, with the stratum corneum facing the donor half-cell. The respective donor and receptor solutions were added (3.3 ml each). Samples of 100 ul each were taken from the receptor compartment at various intervals up to 48 hours and were analyzed by HPLC. The volume of receptor compartment was replaced with fresh isotonic phosphate buffer after each sample. At end of 48 hours, a single aliquot was taken from the donor compartment and analyzed after suitable dilution to evaluate the amount of Hup A lost from the donor in 48 hours.
The rate of Hup A permeation is determined based on the general formula for the determination of the rate of permeation of a drug across a membrane as illustrated by the following equation (1): [formula]
Sink conditions were maintained throughout the permeation study i.e. Cd>>Cr. Permeability can be calculated using solubility of Hup A as the saturation concentration in donor cell (Cd). [formula]
Intrinsic permeability was calculated by correlating the permeability with the thickness of the skin:
Wherein P=intrinsic permeability and h=thickness in cm.
Generally speaking, higher the partitioning of the drug into the skin, higher the permeation will be. The pH-dependent partitioning behavior of Hup A is seen to be reflected in its skin permeation profiles. The intrinsic permeability-pH profiles of Hup A (FIG. 5) is similar to that observed for partition coefficient-pH relationship (FIG. 3). Again, a sigmoidal relationship is observed. Further, the amount lost from the donor solution, which corresponds to the sum of the amount permeated and the amount retained in the skin, was also seen to follow similar relationship (FIG. 6).

patients = conditions: orally 0.2 mg (4 tablets, b.i.d) for 8 weeks; cited from earlier work

## C/C=C1\[C@H]2C=C(C)C[C@]1(N)c1ccc(=O)[nH]c1C2 [Hup A, Huperzine A]
Rat cortex; rat, in vivo
  permeation through the blood-brain barrier: able to permeate through the blood-brain barrier
Rat cortex; systemic or local administration
  Ach, norepinephrine and dopamine in rat cortex: dose-dependent increase
[1]
  pKa: 6.97 (+/−0.06)
[2]
  death of neuronal cell caused by toxic levels of glutamate: decreases the death of neuronal cell
[3]
  pharmaco-kinetics evaluation: absorbed rapidly, distributed widely in the body, and eliminated at a moderate rate
[4]; pH 5 buffer
  Solubility: 6.225 (0.153) mg/ml
[4]; pH 6 buffer
  Solubility: 4.639 (0.001) mg/ml
[4]; pH 7 buffer
  Solubility: 2.123 (0.042) mg/ml
[4]; pH 7.4 buffer
  Solubility: 1.325 (0.042) mg/ml
[4]; pH 8 buffer
  Solubility: 1.201 (0.017) mg/ml
[4]; pH 9 buffer
  Solubility: 1.044 (0.018) mg/ml
[5]; n-octanol/buffer pH 6, 37° C.
  Partition Coefficient: 1.681 (0.010)
[5]; n-octanol/buffer pH 7, 37° C.
  Partition Coefficient: 11.376 (0.415)
[5]; n-octanol/buffer pH 7.4, 37° C.
  Partition Coefficient: 18.359 (0.294)
[5]; n-octanol/buffer pH 8, 37° C.
  Partition Coefficient: 24.063 (0.515)
[5]; n-octanol/buffer pH 9, 37° C.
  Partition Coefficient: 27.463 (0.131)
[6]; donor pH 5, about 750 ug/ml
  Permeation arate: 0.776 (0.029) ug/cm^2/hr
[6]; donor pH 5
  Permeability × 10^3: 1.026 (0.038) cm/hr
[6]; donor pH 6, about 750 ug/ml
  Permeation arate: 0.213 (0.088) ug/cm^2/hr
[6]; donor pH 6
  Permeability × 10^3: 0.290 (0.119) cm/hr
[6]; donor pH 7, about 750 ug/ml
  Permeation arate: 0.633 (0.225) ug/cm^2/hr
[6]; donor pH 7
  Permeability × 10^3: 0.846 (0.300) cm/hr
[6]; donor pH 7.4, about 750 ug/ml
  Permeation arate: 0.759 (0.368) ug/cm^2/hr
[6]; donor pH 7.4
  Permeability × 10^3: 1.007 (0.489) cm/hr
[6]; donor pH 8
  Permeability × 10^3: 4.434 (1.7050) cm/hr
[6]; donor pH 9, about 750 ug/ml
  Permeation arate: 5.082 (2.162) ug/cm^2/hr
[6]; donor pH 9
  Permeability × 10^3: 6.118 (2.603) cm/hr
patients
  patients with significant improvement in memory, cognition and behavior: 58%
  side effects: without causing any severe side effects
